Article PMC9781020, “Anti-Mycobacterial N-(2-Arylethyl)quinolin-3-amines Inspired by Marine Sponge-Derived Alkaloid” (Molecules, 2022)
Values after ≈ are worked out from the molar mass of the structure shown. Like-named read-outs stand apart in the source and are kept apart here.

What was measured:
[1] = Cytotoxicity against HUVECs (WST-8); assay type: cell-based, human; conditions: human, HUVECs (human umbilical vein endothelial cells), 72 h
Method: (§1) HUVECs (5 × 10^5 cells/vial) was purchased from Kurabo Inc. and grown in HuMedia-EG2 medium with growth supplements (Kurabo Inc., Osaka, Japan). HUVECs in the culture medium was plated into each well of 96-well plates (2 × 10^3 cells/well/100 µL). After 24 h, the serially diluted compounds, which were dissolved in the medium containing no more than 0.5% EtOH, were added, and then the plates were incubated for an additional 72 h in a humidified atmosphere of 5% CO2 at 37 °C. The cell proliferation was detected by WST-8 colorimetric reagent (Nacalai Tesque, Inc., Kyoto, Japan). The IC50 value was determined by linear interpolation from the growth inhibition curve.

[2] = system: M. bovis BCG; test: microbe, parasite or virus in culture; assay type: cell-based, Mycobacterium bovis BCG Pasteur; conditions: for MIC: Mycobacterium tuberculosis variant bovis BCG, BCG; for anti-mycobacterial activity (in words): M. bovis BCG
[3] = system: HUVECs; test: Cytotoxicity against HUVECs (WST-8); assay type: cell-based, human
Method: as §1

Structure (SMILES)	IC50 at 72 h [1] [µM]	MIC ([2]; 168 h, read-out: MIC (Aerobic)) [µM]	MIC ([2]; 336 h, read-out: MIC (Hypoxic)) [µM]	anti-mycobacterial activity (in words) [2]	cytotoxicity (in words) [3]
COC1=Cc2ccnc3c(NCCc4ccccc4)cnc(c23)C1=O [Compound 1, 3-(phenethylamino)demethyl(oxy)aaptamine, reference compound]	1.36	1.56 (≈ 0.517 µg/mL)	1.56 (≈ 0.517 µg/mL)		
COc1cc2ccnc(C(=O)NCCc3ccccc3)c2cc1OC [Compound 5, 6,7-Dimethoxy-N-phenethylisoquinoline-1-carboxamide]	11.9	100 (≈ 33.6 µg/mL)	200 (≈ 67.3 µg/mL)	weak anti-mycobacterial activity	
c1ccc(CCNc2cnc3ccccc3c2)cc1 [Compound 6, N-Phenethylquinolin-3-amine]	18	6.25 (≈ 1.55 µg/mL)	50 (≈ 12.4 µg/mL)		
c1ccc(CCNc2cncc3cccnc23)cc1 [Compound 7, N-Phenethyl-1,6-naphthyridin-8-amine]	8.1	100 (≈ 24.9 µg/mL)	50 (≈ 12.5 µg/mL)	weak anti-mycobacterial activity	
c1ccc(CCNc2cccnc2)cc1 [Compound 8, N-Phenethylpyridin-3-amine]	> 100	200 (≈ 39.7 µg/mL)	200 (≈ 39.7 µg/mL)	weak anti-mycobacterial activity	
O=C1C=CC(=O)c2ncc(NCCc3ccccc3)cc21 [Compound 25, 3-(Phenethylamino)quinoline-5,8-dione]	< 1	100 (≈ 27.8 µg/mL)	> 200	weakened anti-mycobacterial activity	enhanced cytotoxicity
COC1=CC(=O)c2cc(NCCc3ccccc3)cnc2C1=O [Compound 32, 7-Methoxy-3-(phenethylamino)quinoline-5,8-dione]	< 1	25 (≈ 7.71 µg/mL)	50 (≈ 15.4 µg/mL)	weakened anti-mycobacterial activity	enhanced cytotoxicity
O=c1c(NCCc2ccccc2)c[nH]c2ccccc12 [Compound 35, 3-(Phenethylamino)quinolin-4(1H)-one]	> 100	> 200	> 200	no anti-mycobacterial or cytotoxic activity	no anti-mycobacterial or cytotoxic activity
O=C(Cc1ccccc1)Nc1cnc2ccccc2c1 [Compound 36, 2-Phenyl-N-(quinolin-3-yl)acetamide]	4.9	100 (≈ 26.2 µg/mL)	100 (≈ 26.2 µg/mL)	significantly weakened anti-mycobacterial activity	
CN(CCc1ccccc1)c1cnc2ccccc2c1 [Compound 37, N-Methyl-N-phenethylquinolin-3-amine]	16	6.25 (≈ 1.64 µg/mL)	50 (≈ 13.1 µg/mL)	antibacterial activity comparable to that of 6	
C#CCN(CCc1ccccc1)c1cnc2ccccc2c1 [Compound 38, N-Phenethyl-N-(prop-2-yn-1-yl)quinolin-3-amine]	18	100 (≈ 28.6 µg/mL)	100 (≈ 28.6 µg/mL)	significantly weakened anti-mycobacterial activity	
c1ccc(CCOc2cnc3ccccc3c2)cc1 [Compound 40, 3-Phenethoxyquinoline]	11	50 (≈ 12.5 µg/mL)	100 (≈ 24.9 µg/mL)	significantly weakened anti-mycobacterial activity	
c1ccc2ncc(NCCC3CCCCC3)cc2c1 [Compound 42, N-(2-Cyclohexylethyl)quinolin-3-amine]	15	50 (≈ 12.7 µg/mL)	100 (≈ 25.4 µg/mL)		
c1ccc2ncc(NCCc3cccc4ccccc34)cc2c1 [Compound 43, N-(2-(Naphthalen-1-yl)ethyl)quinolin-3-amine]	11	100 (≈ 29.8 µg/mL)	> 200	markedly reduced anti-mycobacterial activity	
c1ccc2cc(CCNc3cnc4ccccc4c3)ccc2c1 [Compound 44, N-(2-(Naphthalen-2-yl)ethyl)quinolin-3-amine]	13	6.25 (≈ 1.86 µg/mL)	12.5 (≈ 3.73 µg/mL)	good anti-mycobacterial activity under aerobic and hypoxic conditions	
c1csc(CCNc2cnc3ccccc3c2)c1 [Compound 45, N-(2-(Thiophen-2-yl)ethyl)quinolin-3-amine]	14	6.25 (≈ 1.59 µg/mL)	50 (≈ 12.7 µg/mL)		
C#CCCNc1cnc2ccccc2c1 [Compound 46, N-(But-3-yn-1-yl)quinolin-3-amine]	53	> 200	> 200		
NNC(=O)c1ccncc1 [isoniazid, reference compound]		0.39 (≈ 0.0535 µg/mL)	> 200		
